What is called IC50 is the concentration that inhibits the measured activity by half.

Each structure is given as a SMILES string.

Results on nine compounds are retold here after patent US11939340B2, “CDK inhibitors and their use as pharmaceuticals” (Prelude Therapeutics Incorporated, priority 2022, dated 2024).

Experiment [1] addresses CDK2/Cyclin E2 (Homo sapiens, UniProt P24941). As to the kind of experiment: CDK2/CyclinE2 Enzymatic Activity Assay (TR-FRET). It is filed as biochemical. As to conditions: CDK2/CyclinE2 1 nM, ATP 1 mM, read-out: CDK2_El IC50. The gist of the method:
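TR-FRET kinase assay with insect-cell CDK2/Cyclin E2 (1 nM) phosphorylating ULight-4E-BP1 (50 nM) at 1 mM ATP in HEPES pH 7.4 buffer; 9-dose 3-fold series preincubated 20 min, reaction started with 10 mM MgCl2, 45 min at 37 °C. EDTA quench, Eu-anti-P-4E-BP1 detection; IC50 from 4-parameter fit.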

Experiment [2] has as its target T1, CDK4/Cyclin D1 (Homo sapiens, UniProt P11802).
T1 construct: purchased ProQinase; host or cells: insect cell
As to the kind of experiment: CDK4/CyclinD1 Enzymatic Activity Assay (TR-FRET). The class given is biochemical. As to conditions: CDK4/CyclinD1 1 nM, ATP 2 mM, read-out: CDK4_D1 IC50. The gist of the method: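 Insect-cell-expressed CDK4/Cyclin D1 (1 nM) phosphorylated ULight-4E-BP1 (100 nM) with 2 mM ATP in HEPES pH 7.4 buffer with TCEP, after 20 min compound preincubation; 10 mM MgCl2 started the reaction, run 45 min at 37 °C. EDTA/Eu-anti-phospho-4E-BP1 TR-FRET readout; 9-point IC50 by four-parameter fit.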
In general terms: TR-FRET usually uses a lanthanide donor and a delayed reading to cut background.

Experiment [3] relates to pRB in OVCAR3 cells. As to the kind of experiment: pRB ICW Assay in OVCAR3 Cells. The class given is cell-based. As to conditions: Homo sapiens, OVCAR-3, incubated with compound for 2 hours, read-out: OVCAR3 p-RB ICW IC50. The gist of the method:
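OVCAR3 cells seeded overnight, then exposed for 2 h at 37 °C to a 9-point half-log compound dilution series in duplicate; 10 μM reference compound defined maximum inhibition. Fixed, permeabilised cells stained in-cell western style with anti-phospho-RB antibody plus DRAQ5 nuclear stain; fluorescence read at 700 and 800 nm.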

T1 sequence (P11802 whole entry): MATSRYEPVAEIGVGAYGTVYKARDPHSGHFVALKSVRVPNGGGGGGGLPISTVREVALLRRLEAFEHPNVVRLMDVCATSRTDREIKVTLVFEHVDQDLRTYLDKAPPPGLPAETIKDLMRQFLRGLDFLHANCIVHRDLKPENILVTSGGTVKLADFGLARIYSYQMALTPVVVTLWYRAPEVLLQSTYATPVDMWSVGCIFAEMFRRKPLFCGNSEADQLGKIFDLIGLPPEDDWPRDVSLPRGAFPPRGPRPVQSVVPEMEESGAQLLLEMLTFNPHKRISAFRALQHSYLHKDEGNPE
T1 sequence (P24385 whole entry partner): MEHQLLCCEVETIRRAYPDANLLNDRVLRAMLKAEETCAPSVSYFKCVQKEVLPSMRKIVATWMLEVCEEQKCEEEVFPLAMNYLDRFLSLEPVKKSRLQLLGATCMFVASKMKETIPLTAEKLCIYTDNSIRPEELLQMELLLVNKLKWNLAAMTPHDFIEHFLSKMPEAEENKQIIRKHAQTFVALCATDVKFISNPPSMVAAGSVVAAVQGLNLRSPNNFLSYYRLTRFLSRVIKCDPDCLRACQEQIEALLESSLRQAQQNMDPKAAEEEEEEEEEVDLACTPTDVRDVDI

In the case of `[2H]C([2H])([2H])NC1CN2C(=O)c3cc(-c4nc(NC5CCN(S(C)(=O)=O)CC5)ncc4C(F)(F)F)sc3C2(CC)C1` (stereo not drawn) [Example 42, 8a-Ethyl-7-((methyl-d3)amino)-2-(2-((1-(methylsulfonyl)piperidin-4-yl)amino)-5-(trifluoromethyl)pyrimidin-4-yl)-6,7,8,8a-tetrahydro-4H-thieno[2,3-a]pyrrolizin-4-one], the 50% inhibitory concentration (IC50) in experiment [1], in experiment [2] and in experiment [3] was at most 100 nM in each case.
As to `CCC12CC(NC)CN1C(=O)c1cc(-c3nc(N[C@H]4CCN(S(C)(=O)=O)C[C@H]4C)ncc3C(F)(F)F)sc12` (stereo partly drawn) [Example 43, 8a-Ethyl-2-(2-(((3R,4S)-3-methyl-1-(methylsulfonyl)piperidin-4-yl)amino)-5-(trifluoromethyl)pyrimidin-4-yl)-7-(methylamino)-6,7,8,8a-tetrahydro-4H-thieno[2,3-a]pyrrolizin-4-one], the IC50 in experiment [1] is at most 100 nM; in experiment [2] it was at most 100 nM; in experiment [3], 100 to 500 nM.
On to `CCC12CC(NC)CN1C(=O)c1cc(-c3nc(N[C@H]4CCN(S(=O)(=O)c5cnn(C)c5)C[C@H]4C)ncc3C(F)(F)F)sc12` (stereo partly drawn) [Example 44, 8a-Ethyl-2-(2-(((3R,4S)-3-methyl-1-((1-methyl-1H-pyrazol-4-yl)sulfonyl)piperidin-4-yl)amino)-5-(trifluoromethyl)pyrimidin-4-yl)-7-(methylamino)-6,7,8,8a-tetrahydro-4H-thieno[2,3-a]pyrrolizin-4-one], for which the IC50 in experiment [1], in experiment [2] and in experiment [3] was at most 100 nM in each case.
On to `CCC12CC(N)CN1C(=O)c1cc(-c3nc(N[C@H]4CCN(S(C)(=O)=O)C[C@H]4C)ncc3C(F)(F)F)sc12` (stereo partly drawn) [Example 45, 7-Amino-8a-ethyl-2-(2-(((3R,4S)-3-methyl-1-(methylsulfonyl)piperidin-4-yl)amino)-5-(trifluoromethyl)pyrimidin-4-yl)-6,7,8,8a-tetrahydro-4H-thieno[2,3-a]pyrrolizin-4-one], for which the IC50 in experiment [1], in experiment [2] and in experiment [3] was at most 100 nM each time.
Consider `CCC12CC(N)CN1C(=O)c1cc(-c3nc(N[C@H]4CCN(S(=O)(=O)c5cnn(C)c5)C[C@H]4C)ncc3C(F)(F)F)sc12` (stereo partly drawn) [Example 46, 7-Amino-8a-ethyl-2-(2-(((3R,4S)-3-methyl-1-((1-methyl-1H-pyrazol-4-yl)sulfonyl)piperidin-4-yl)amino)-5-(trifluoromethyl)pyrimidin-4-yl)-6,7,8,8a-tetrahydro-4H-thieno[2,3-a]pyrrolizin-4-one], for which the IC50 in experiment [1], in experiment [2] and in experiment [3] was at most 100 nM each time.
With `CCC12CC(NC)CN1C(=O)c1cc(-c3nc(N[C@@H]4CCN(S(C)(=O)=O)C[C@H]4F)ncc3C(F)(F)F)sc12` (stereo partly drawn) [Example 47, 8a-Ethyl-2-(2-(((3R,4R)-3-fluoro-1-(methylsulfonyl)piperidin-4-yl)amino)-5-(trifluoromethyl)pyrimidin-4-yl)-7-(methylamino)-6,7,8,8a-tetrahydro-4H-thieno[2,3-a]pyrrolizin-4-one], the IC50 in experiment [1], in experiment [2] and in experiment [3] was at most 100 nM in each case.
On to `CCC12CC(NC)CN1C(=O)c1cc(-c3nc(N[C@H]4CCN(S(C)(=O)=O)C[C@H]4F)ncc3C(F)(F)F)sc12` (stereo partly drawn) [Example 48, 8a-Ethyl-2-(2-(((3R,4S)-3-fluoro-1-(methylsulfonyl)piperidin-4-yl)amino)-5-(trifluoromethyl)pyrimidin-4-yl)-7-(methylamino)-6,7,8,8a-tetrahydro-4H-thieno[2,3-a]pyrrolizin-4-one], for which the IC50 in experiment [1], in experiment [2] and in experiment [3] was at most 100 nM each time.
For `CCC12CC(NC)CN1C(=O)c1cc(-c3nc(NC4CCN(S(=O)(=O)c5cnn(C)c5)CC4)ncc3C(F)(F)F)sc12` (stereo not drawn) [Example 49, 8a-Ethyl-2-(2-((1-((1-methyl-1H-pyrazol-4-yl)sulfonyl)piperidin-4-yl)amino)-5-(trifluoromethyl)pyrimidin-4-yl)-7-(methylamino)-6,7,8,8a-tetrahydro-4H-thieno[2,3-a]pyrrolizin-4-one], the 50% inhibitory concentration (IC50) in experiment [1], in experiment [2] and in experiment [3] was at most 100 nM each time.
For the compound `CCC12CC(N(C)C)CN1C(=O)c1cc(-c3nc(NC4CCN(S(=O)(=O)c5cnn(C)c5)CC4)ncc3C(F)(F)F)sc12` (stereo not drawn) [Example 50, 7-(Dimethylamino)-8a-ethyl-2-(2-((1-((1-methyl-1H-pyrazol-4-yl)sulfonyl)piperidin-4-yl)amino)-5-(trifluoromethyl)pyrimidin-4-yl)-6,7,8,8a-tetrahydro-4H-thieno[2,3-a]pyrrolizin-4-one], the IC50 in experiment [1], in experiment [2] and in experiment [3] was at most 100 nM throughout.
